Results taken from US20110269811A1, “INHIBITORS OF SEMICARBAZIDE-SENSITIVE AMINE OXIDASE (SSAO) AND VAP-1 MEDIATED ADHESION USEFUL FOR TREATMENT AND PREVENTION OF DISEASES” (priority 2006, published 2011).

How the values were obtained:
A1 (h) = molecular target: T1, A1 (h) (Homo sapiens, UniProt P30542); experiment: Receptor binding screen, [^3H]DPCPX; details: 10 uM Concentration of Compound I-1-Z; read-out: Mean Value, percent inhibition of control specific binding: A1 (h)
T1 construct: expressed in transfected cells; host or cells: CHO cells
T1 sequence (P30542 whole entry): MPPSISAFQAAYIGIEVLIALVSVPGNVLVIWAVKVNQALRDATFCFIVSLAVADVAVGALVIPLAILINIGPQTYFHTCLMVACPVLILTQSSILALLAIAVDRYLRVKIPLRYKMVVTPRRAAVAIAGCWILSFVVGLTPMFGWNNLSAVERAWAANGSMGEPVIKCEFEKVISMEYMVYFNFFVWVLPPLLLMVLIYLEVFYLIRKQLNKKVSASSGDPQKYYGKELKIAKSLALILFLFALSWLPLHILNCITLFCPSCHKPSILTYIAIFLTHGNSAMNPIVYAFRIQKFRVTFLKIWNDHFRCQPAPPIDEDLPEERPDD

A3 (h) = molecular target: T2, A3 (h) (Homo sapiens, UniProt P0DMS8); experiment: Receptor binding screen, [^125I]AB-MECA; details: 10 uM Concentration of Compound I-1-Z; read-out: Mean Value, percent inhibition of control specific binding: A3 (h)
T2 construct: expressed in transfected cells; host or cells: HEK-293 cells
T2 sequence (P0DMS8 whole entry): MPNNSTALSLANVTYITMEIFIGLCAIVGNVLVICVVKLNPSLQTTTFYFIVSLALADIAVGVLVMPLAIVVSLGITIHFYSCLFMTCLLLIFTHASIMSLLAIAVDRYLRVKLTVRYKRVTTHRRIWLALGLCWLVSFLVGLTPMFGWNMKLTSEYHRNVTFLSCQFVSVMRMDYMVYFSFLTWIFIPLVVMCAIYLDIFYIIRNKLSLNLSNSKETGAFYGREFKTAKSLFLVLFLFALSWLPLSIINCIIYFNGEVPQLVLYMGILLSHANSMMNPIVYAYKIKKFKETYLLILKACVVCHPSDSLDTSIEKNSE

β2 (h) = molecular target: T3, β2 (h) (Homo sapiens, UniProt P07550); experiment: Receptor binding screen, [^3H](−)CGP 12177; details: 10 uM Concentration of Compound I-1-Z; read-out: Mean Value, percent inhibition of control specific binding: β2 (h)
T3 construct: expressed in transfected cells; host or cells: Sf9 cells
T3 sequence (P07550 whole entry): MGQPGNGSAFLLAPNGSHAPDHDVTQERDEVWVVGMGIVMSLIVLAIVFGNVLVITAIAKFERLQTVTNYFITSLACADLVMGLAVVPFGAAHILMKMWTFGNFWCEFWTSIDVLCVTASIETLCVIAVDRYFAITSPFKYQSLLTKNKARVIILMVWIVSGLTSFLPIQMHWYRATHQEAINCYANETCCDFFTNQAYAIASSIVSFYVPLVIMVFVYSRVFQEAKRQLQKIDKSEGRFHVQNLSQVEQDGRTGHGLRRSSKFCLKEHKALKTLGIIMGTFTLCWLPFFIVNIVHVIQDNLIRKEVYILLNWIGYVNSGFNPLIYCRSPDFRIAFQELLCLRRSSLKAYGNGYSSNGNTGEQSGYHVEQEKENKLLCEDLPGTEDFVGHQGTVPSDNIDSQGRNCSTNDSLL

D3 (h) = molecular target: T4, D3 (h) (Homo sapiens, UniProt P35462); experiment: Receptor binding screen, [^3H]spiperone; details: 10 uM Concentration of Compound I-1-Z; read-out: Mean Value, percent inhibition of control specific binding: D3 (h)
T4 construct: expressed in transfected cells; host or cells: CHO cells
T4 sequence (P35462 whole entry): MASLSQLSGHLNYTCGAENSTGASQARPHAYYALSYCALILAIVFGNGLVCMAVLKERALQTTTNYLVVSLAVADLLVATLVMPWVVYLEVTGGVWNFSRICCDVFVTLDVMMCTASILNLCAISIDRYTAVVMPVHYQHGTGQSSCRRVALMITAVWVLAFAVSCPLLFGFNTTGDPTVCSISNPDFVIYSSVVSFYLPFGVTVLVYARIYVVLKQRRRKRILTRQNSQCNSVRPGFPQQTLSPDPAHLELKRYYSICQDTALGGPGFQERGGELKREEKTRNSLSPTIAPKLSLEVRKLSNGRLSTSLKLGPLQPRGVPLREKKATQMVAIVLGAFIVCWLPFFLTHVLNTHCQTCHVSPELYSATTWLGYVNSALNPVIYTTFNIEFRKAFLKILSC

CXCR2 (h) (IL-8B) = molecular target: T5, CXCR2 (h) (IL-8B) (Homo sapiens, UniProt P25025); experiment: Receptor binding screen, [^125I]IL-8; details: 10 uM Concentration of Compound I-1-Z; read-out: Mean Value, percent inhibition of control specific binding: CXCR2 (h) (IL-8B)
T5 construct: expressed in transfected cells; host or cells: HEK-293 cells
T5 sequence (P25025 whole entry): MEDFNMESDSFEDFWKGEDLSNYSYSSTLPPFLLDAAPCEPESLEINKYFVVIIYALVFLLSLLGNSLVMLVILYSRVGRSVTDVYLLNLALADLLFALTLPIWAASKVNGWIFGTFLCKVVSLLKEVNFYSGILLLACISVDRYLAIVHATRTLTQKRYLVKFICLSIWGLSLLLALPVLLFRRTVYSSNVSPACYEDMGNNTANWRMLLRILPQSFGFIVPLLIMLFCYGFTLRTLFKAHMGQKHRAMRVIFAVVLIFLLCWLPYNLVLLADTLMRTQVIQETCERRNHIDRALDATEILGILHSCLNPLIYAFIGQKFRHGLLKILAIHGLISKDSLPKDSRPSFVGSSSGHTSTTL

M1 (h) = molecular target: T6, M1 (h) (Homo sapiens, UniProt P11229); experiment: Receptor binding screen, [^3H]pirenzepine; details: 10 uM Concentration of Compound I-1-Z; read-out: Mean Value, percent inhibition of control specific binding: M1 (h)
T6 construct: expressed in transfected cells; host or cells: CHO cells
T6 sequence (P11229 whole entry): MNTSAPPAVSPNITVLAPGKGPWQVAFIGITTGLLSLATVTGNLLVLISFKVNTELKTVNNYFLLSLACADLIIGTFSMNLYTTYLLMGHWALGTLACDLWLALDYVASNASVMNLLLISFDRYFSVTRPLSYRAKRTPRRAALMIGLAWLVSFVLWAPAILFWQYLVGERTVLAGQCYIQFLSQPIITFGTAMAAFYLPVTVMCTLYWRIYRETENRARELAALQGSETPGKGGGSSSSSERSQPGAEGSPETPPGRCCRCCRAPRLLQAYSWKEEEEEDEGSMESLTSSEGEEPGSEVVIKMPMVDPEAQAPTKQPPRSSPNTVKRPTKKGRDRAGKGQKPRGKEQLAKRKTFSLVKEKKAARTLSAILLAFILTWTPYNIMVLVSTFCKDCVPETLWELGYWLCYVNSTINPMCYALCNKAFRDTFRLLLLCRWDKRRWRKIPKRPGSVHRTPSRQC
Method: For Table 4 below, the specific ligand binding to the receptors is defined as the difference between the total binding and the nonspecific binding determined in the presence of an excess of unlabelled ligand. The results are expressed as a percent inhibition of control specific binding obtained in the presence of Compound I-1-Z. The IC50 values (concentration causing a half-maximal inhibition of control specific binding) and Hill coefficients (nH) were determined by non-linear regression analysis of the competition curves using Hill equation curve fitting. The inhibition constants (Ki) were calculated from the Cheng Prusoff equation (Ki=IC50/(1+(L/KD)), where L=concentration of radioligand in the assay, and KD=affinity of the radioligand for the receptor). In each experiment, the respective reference compound was tested concurrently with Compound I-1-Z in order to assess the assay suitability.

Y2 (h) = molecular target: T7, Y2 (h) (Homo sapiens, UniProt P49146); experiment: Receptor binding screen, [^125I]peptide YY, KAN-TS cells; details: 10 uM Concentration of Compound I-1-Z; read-out: Mean Value, percent inhibition of control specific binding: Y2 (h)
T7 construct: KAN-TS cells; endogenous in cells; host or cells: KAN-TS cells
T7 sequence (P49146 whole entry): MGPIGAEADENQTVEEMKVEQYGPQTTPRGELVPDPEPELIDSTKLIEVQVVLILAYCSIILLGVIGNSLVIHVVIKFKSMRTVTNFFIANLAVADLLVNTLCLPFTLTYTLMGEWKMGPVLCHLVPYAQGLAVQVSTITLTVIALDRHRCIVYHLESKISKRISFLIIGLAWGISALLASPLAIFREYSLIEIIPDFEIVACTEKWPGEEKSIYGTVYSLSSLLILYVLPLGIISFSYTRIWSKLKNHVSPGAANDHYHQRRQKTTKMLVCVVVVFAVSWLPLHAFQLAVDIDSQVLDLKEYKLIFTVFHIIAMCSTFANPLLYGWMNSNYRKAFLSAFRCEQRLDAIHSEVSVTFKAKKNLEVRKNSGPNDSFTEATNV

TXA2/PGH2 (h) (TP) = molecular target: T8, TXA2/PGH2 (h) (TP) (Homo sapiens, UniProt P21731); experiment: Receptor binding screen, [^3H]SQ 29548, human platelets; details: 10 uM Concentration of Compound I-1-Z; read-out: Mean Value, percent inhibition of control specific binding: TXA2/PGH2 (h) (TP)
T8 construct: human platelets; endogenous in cells; host or cells: human platelets
T8 sequence (P21731 whole entry): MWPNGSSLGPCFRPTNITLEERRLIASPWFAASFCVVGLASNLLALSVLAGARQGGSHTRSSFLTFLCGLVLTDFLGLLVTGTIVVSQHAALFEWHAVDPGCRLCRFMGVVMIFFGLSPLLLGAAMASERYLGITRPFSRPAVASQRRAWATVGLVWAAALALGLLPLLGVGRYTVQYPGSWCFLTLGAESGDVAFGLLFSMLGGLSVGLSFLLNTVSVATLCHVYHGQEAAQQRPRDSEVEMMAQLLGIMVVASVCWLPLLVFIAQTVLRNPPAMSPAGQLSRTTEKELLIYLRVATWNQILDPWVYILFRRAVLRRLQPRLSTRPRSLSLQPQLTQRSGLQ

5-HT5A (h) = molecular target: T9, 5-HT5A (h) (Homo sapiens, UniProt P47898); experiment: Receptor binding screen, [^3H]LSD; details: 10 uM Concentration of Compound I-1-Z; read-out: Mean Value, percent inhibition of control specific binding: 5-HT5A (h)
T9 construct: expressed in transfected cells; host or cells: CHO cells
T9 sequence (P47898 whole entry): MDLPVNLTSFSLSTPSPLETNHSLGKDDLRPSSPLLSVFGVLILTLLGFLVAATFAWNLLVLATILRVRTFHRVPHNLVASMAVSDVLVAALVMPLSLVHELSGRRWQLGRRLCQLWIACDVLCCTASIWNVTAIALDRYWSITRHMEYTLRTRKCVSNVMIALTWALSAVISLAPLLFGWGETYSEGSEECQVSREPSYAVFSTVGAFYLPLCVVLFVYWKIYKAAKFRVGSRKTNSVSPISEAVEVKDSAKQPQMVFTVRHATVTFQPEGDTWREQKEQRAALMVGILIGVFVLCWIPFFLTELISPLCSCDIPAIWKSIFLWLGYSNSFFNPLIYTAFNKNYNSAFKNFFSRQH

V1a (h) = molecular target: T10, V1a (h) (Homo sapiens, UniProt P37288); experiment: Receptor binding screen, [^3H]AVP; details: 10 uM Concentration of Compound I-1-Z; read-out: Mean Value, percent inhibition of control specific binding: V1a (h)
T10 construct: expressed in transfected cells; host or cells: CHO cells
T10 sequence (P37288 whole entry): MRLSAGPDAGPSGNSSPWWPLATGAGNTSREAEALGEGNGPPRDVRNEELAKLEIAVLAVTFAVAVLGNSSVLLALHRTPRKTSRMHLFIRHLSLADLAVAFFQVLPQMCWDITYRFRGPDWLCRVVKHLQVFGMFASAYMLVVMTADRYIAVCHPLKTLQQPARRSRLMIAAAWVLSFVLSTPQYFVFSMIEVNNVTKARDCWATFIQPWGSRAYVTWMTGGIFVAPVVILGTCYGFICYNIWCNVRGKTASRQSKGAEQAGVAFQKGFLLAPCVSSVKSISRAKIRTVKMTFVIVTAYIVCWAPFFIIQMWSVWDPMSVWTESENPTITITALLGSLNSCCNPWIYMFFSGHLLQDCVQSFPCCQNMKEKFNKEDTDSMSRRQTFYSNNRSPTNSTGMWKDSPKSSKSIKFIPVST

DA transporter (h) = molecular target: T11, DA transporter (h) (Homo sapiens, UniProt Q01959); experiment: Receptor binding screen, [^3H]BTCP; details: 10 uM Concentration of Compound I-1-Z; read-out: Mean Value, percent inhibition of control specific binding: DA transporter (h)
T11 construct: expressed in transfected cells; host or cells: CHO cells
T11 sequence (Q01959 whole entry): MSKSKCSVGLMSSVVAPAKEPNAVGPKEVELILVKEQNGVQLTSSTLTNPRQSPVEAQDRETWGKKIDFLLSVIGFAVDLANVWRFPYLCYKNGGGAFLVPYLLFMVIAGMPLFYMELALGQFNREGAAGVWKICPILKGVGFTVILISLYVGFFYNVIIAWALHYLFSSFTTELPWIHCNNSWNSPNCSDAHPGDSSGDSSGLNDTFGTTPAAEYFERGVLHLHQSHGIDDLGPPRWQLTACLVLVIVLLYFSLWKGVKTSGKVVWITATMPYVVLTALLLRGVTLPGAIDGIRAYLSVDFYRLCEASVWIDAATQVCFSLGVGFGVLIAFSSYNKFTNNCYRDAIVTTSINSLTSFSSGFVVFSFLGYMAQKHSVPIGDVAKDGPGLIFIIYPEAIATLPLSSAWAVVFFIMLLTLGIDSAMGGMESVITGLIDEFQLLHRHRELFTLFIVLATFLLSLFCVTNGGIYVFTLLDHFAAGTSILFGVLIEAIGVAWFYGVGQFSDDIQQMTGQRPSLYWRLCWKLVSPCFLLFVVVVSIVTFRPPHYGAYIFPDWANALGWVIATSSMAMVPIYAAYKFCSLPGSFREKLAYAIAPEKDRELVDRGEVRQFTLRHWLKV

For `COc1ccc(C/C(=C/F)CN)cc1.Cl` [Compound I-1-Z, (Z)-3-Fluoro-2-(4-methoxybenzyl)-allylamine hydrochloride], the inhibition at 10 µM (A1 (h)) was -3%, the inhibition at 10 µM (A3 (h)) was 1% and the inhibition at 10 µM (β2 (h)) was 6%. For the same molecule, the inhibition at 10 µM (D3 (h)) was -2%, the inhibition at 10 µM (CXCR2 (h) (IL-8B)) was -8% and the inhibition at 10 µM (M1 (h)) was 28%. It also gave an inhibition at 10 µM (Y2 (h)) of 11%, an inhibition at 10 µM (TXA2/PGH2 (h) (TP)) of 4% and an inhibition at 10 µM (5-HT5A (h)) of -3%. For the same molecule, the inhibition at 10 µM (V1a (h)) was 9% and the inhibition at 10 µM (DA transporter (h)) was 38%.
